US20020028479A1, “Methods for the detection of fungal growth” (priority 2000, published 2002)

Experiments:
[1] = test system: A. nidulans 200092; assay: Spore germination with indicator/electron donor added at T0, viewed microscopically; format: cell-based; conditions: added at the same time as spores (T0), no viability at 48 hours
Procedure: Spores from a frozen stock of A. nidulans 200092 at 1.63×10^7/ml) were diluted to 5×10^3/ml to yield 500 spores per well in yeast extract with glucose broth supplemented with lysine and uridine.
Tetrazolium salts (listed in Table 1) were each dissolved to 1 mg/ml in phosphate-buffered saline (PBS) or water, aliquotted, and frozen. Electron coupling agents phenazine methosulfate (PMS; lot 194-03) and menadione (MEN; lot 170-95) were prepared at 5 mM in PBS and 10 mM in acetone, respectively. Cultures had no electron coupling reagent added, PMS (120 μl of PMS per 12 ml of tetrazolium salt) or MEN (42 μl per 12 ml of tetrazolium salt). Each well received 25 μl of indicator.
Indicator (with or without electron coupling reagent) was added at the same time as spores (T0), following ˜24 hours of incubation (T24), or following ˜48 hours of incubation (T48). Wells were viewed ˜2 hours post addition. NC denotes no color seen.
Microscopically, when compared to wells that had no indicator added or had PMS added, it was evident that the spores were present but had not germinated. At 48 hours, these same wells still had not shown any signs of viability.

[2] = test system: Aspergillus nidulans 200092; assay: MTS/MEN growth inhibition assay, OD490;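 note: fungal spore suspensions in 96-well plates with MTS/MEN indicator, absorbance read after 2 h and again after further development up to 24 h, controls containing medium only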
Procedure: Spores from a frozen stock of Aspergillus nidulans 200092 (at 1.63×10^7/ml) were diluted to 5×10^3/ml to yield 500 spores per well in yeast extract with glucose broth supplemented with lysine and uridine.
MEN was added at a ratio of 42 μl MEN per 12 ml of MTS. Each well received 25 μl indicator.
98 μl of the spore suspension was added to the wells of a 96 well plate. Control wells received media only. […] Plates were then incubated for 2 hours and then read at OD490. MTS/MEN was then allowed to develop for an additional period of time up to 24 hours and the plates was re-read.

[3] = Aspergillus nidulans, 200092, 2 h
[4] = Aspergillus nidulans, 200092, 24 h

## O=[N+]([O-])c1ccc(-[n+]2nc(-c3ccccc3)nn2-c2ccc(I)cc2)cc1.[Cl-] [INT, p-Iodonitrotetrazolium Violet]
[1]
  germination or growth of the spores: inhibit germination or growth of the spores

## COc1cc(-c2ccc(-[n+]3nc(-c4ccc([N+](=O)[O-])cc4)nn3-c3ccc([N+](=O)[O-])cc3)c(OC)c2)ccc1-[n+]1nc(-c2ccc([N+](=O)[O-])cc2)nn1-c1ccc([N+](=O)[O-])cc1.[Cl-].[Cl-] [TNTB, Tetranitro Blue Tetrazolium]
[1]
  germination or growth of the spores: inhibit germination or growth of the spores

## C[n+]1cc2c3c(ccc2c2ccc4cc5c(cc4c21)OCO5)OCO3 [Sanguinarine, sanguinarine]
[2]; [3]
  IC50: 1.42 µg/mL
  inhibition at 0.0061 µg/mL: 16.2%
  inhibition at 0.0122 µg/mL: -3.1%
  inhibition at 0.0244 µg/mL: 15.6%
  inhibition at 0.0488 µg/mL: 15.7%
  inhibition at 0.0977 µg/mL: 42.9%
  inhibition at 0.1953 µg/mL: 10.2%
  inhibition at 0.3906 µg/mL: 33.8%
  inhibition at 0.7813 µg/mL: 45%
  inhibition at 1.5625 µg/mL: 49.6%
  inhibition at 3.125 µg/mL: 50.8%
  inhibition at 6.25 µg/mL: 86.9%
  inhibition at 12.5 µg/mL: 89.4%
  inhibition at 25 µg/mL: 88.4%
  inhibition at 50 µg/mL: 77.3%
  inhibition at 100 µg/mL: 53.3%
  inhibition at 200 µg/mL: 7%
[2]; [4]
  IC50: 2.77 µg/mL
  inhibition at 0.0061 µg/mL: 10.9%
  inhibition at 0.0122 µg/mL: -1.7%
  inhibition at 0.0244 µg/mL: 5.1%
  inhibition at 0.0488 µg/mL: 7.9%
  inhibition at 0.0977 µg/mL: 18.4%
  inhibition at 0.1953 µg/mL: -2.4%
  inhibition at 0.3906 µg/mL: 12.6%
  inhibition at 0.7813 µg/mL: 19.7%
  inhibition at 1.5625 µg/mL: 39.8%
  inhibition at 3.125 µg/mL: 42.2%
  inhibition at 6.25 µg/mL: 86.7%
  inhibition at 12.5 µg/mL: 93.7%
  inhibition at 25 µg/mL: 92.4%
  inhibition at 50 µg/mL: 91.7%
  inhibition at 100 µg/mL: 87.5%
  inhibition at 200 µg/mL: 79.5%

## CC1=CC(=O)c2ccccc2C1=O [MEN, menadione]
[1]
  germination or growth of the spores: inhibit germination or growth of the spores

## COc1cc(-c2ccc(-n3nc(-c4ccccc4)n[n+]3-c3ccccc3)c(OC)c2)ccc1-n1nc(-c2ccccc2)n[n+]1-c1ccccc1 [BT, Tetrazolium Blue Chloride]
[1]
  germination or growth of the spores: inhibit germination or growth of the spores

## c1ccc(-c2nn(-c3ccccc3)[n+](-c3cccc4ccccc34)n2)cc1 [TV, Tetrazolium Violet]
[1]
  germination or growth of the spores: inhibit germination or growth of the spores

## Clc1ccccc1C(c1ccccc1)(c1ccccc1)n1ccnc1 [Clotrimazole, clotrimazole]
[2]; [3]
  inhibition at 0.0039 µg/mL: 15.8%
  inhibition at 0.0078 µg/mL: 35.4%
  inhibition at 0.0156 µg/mL: 26%
  inhibition at 0.0313 µg/mL: 56.8%
  inhibition at 0.0625 µg/mL: 86.5%
  inhibition at 0.125 µg/mL: 94.6%
  inhibition at 0.25 µg/mL: 93%
  inhibition at 0.5 µg/mL: 93%
  inhibition at 1 µg/mL: 94.5%
  inhibition at 2 µg/mL: 93.4%
  inhibition at 4 µg/mL: 95.8%
  inhibition at 8 µg/mL: 94.4%
  inhibition at 16 µg/mL: 94.4%
  inhibition at 32 µg/mL: 91.5%
  inhibition at 64 µg/mL: 86%
[2]; [4]
  inhibition at 0.0039 µg/mL: 6.6%
  inhibition at 0.0078 µg/mL: 48.5%
  inhibition at 0.0156 µg/mL: 47.2%
  inhibition at 0.0313 µg/mL: 70.1%
  inhibition at 0.0625 µg/mL: 77%
  inhibition at 0.125 µg/mL: 93.6%
  inhibition at 0.25 µg/mL: 91.6%
  inhibition at 0.5 µg/mL: 92%
  inhibition at 1 µg/mL: 93.9%
  inhibition at 2 µg/mL: 92.3%
  inhibition at 4 µg/mL: 96.2%
  inhibition at 8 µg/mL: 94.2%
  inhibition at 16 µg/mL: 93.4%
  inhibition at 32 µg/mL: 92.1%
  inhibition at 64 µg/mL: 91.9%
